Laboratory results reported in paper PMC10057332, “Anticancer and Targeting Activity of Phytopharmaceutical Structural Analogs of a Natural Peptide from Trichoderma longibrachiatum and Related Peptide-Decorated Gold Nanoparticles” (International Journal of Molecular Sciences, 2023).
pIC50: −log10 of the molar value. Where “and” joins values, the source holds several entries; their conditions need not be identical. Equal entries are not always repeated. Residues, ends and D or L forms follow the SMILES beside them.

What was measured:
MCF-10A cells = experiment: MTS cytotoxicity in normal epithelial breast MCF-10A cells; assay type: cell-based, human; conditions: for pIC50: cells exposed to peptaibols for 24 h, MTS assay; for effect on viability of MCF-10A cells: peptide concentration range tested, 24 h, MTS
Method: (§1) Cells were incubated with increasing concentrations of peptides for 24 h before assessing cell viability with MTS assay in order to create dose/response curves (Figure 4) and calculate the half maximal inhibitory concentration (IC50) values for each peptaibol (Table 3). For convenience, peptides have been subdivided based on their C-terminal substituents, i.e., leucinol (lol) or amide (-NH2).
(§2) The cytotoxicity of peptides and free Api8- and Leu4-decorated GNPs was assessed with the MTS assay (CellTiter 96® AQueous One Solution Cell Proliferation Assay, Promega, Milan, Italy) in cancer MDA-MB-231 and normal MCF-10A cells exposed to increasing concentrations of peptaibols/GNPs for 24 h. Cells (8 × 10^3 cells/well for MDA-MB-231, 6 × 10^3 cells/well for MCF-10A) were seeded in 96-well plates, and after 24 h the medium was replaced with a fresh one containing peptaibols/GNPs. For MTS assay, the medium was replaced with 100 μL of serum-free medium and 20 μL of the CellTiter 96® reagent. After 60–90 min, the absorbance at 492 nm was measured with a Multiskan Go (Thermo Fischer Scientific, Carlsbad, CA, USA) plate reader and cell viability was expressed as a function of absorbance relative to that of control cells (considered as 100% viability). IC50 values for each peptaibol treatment were extrapolated from the relative dose–response curves obtained with the software GraphPad Prism 9.5.

MDA-MB-231 cells = experiment: MTS cytotoxicity in MDA-MB-231 triple negative breast cancer cells; assay type: cell-based, human; conditions: for pIC50: cells exposed to peptaibols for 24 h, MTS assay; for killing activity in cancer cells: 10 µM peptide
Method: as §1, §2

[1] = tested on: MDA-MB-231 with respect to MCF-10A cells; experiment: Flow cytometry uptake of FITC-conjugated peptaibols; assay type: cell-based, human; conditions: highest concentration tested, 24 h incubation
Method: For this study, we decided to focus our attention on the unique, noncytotoxic, yet membrane-active peptides Leu4-NH2 and Api8-NH2 to study them as potential cancer-targeting agents. […] As reference, K6-NH2 internalization was measured as well, since for this specific peptide, previous studies already reported an increased uptake in tumor cells (HDLM-2 and A2780 tumor cell lines) with respect to normal healthy cells, such as peripheral blood mononuclear cells (PBMCs) or fibroblasts.
Figure 5 Flow cytometry measurements of FITC-conjugated peptaibols in MDA-MB-231 (a) and MCF-10 (b) cells after a 24 h incubation period.
Flow cytometry and peptides conjugated with FITC, namely Api8-FITC and Leu4-FITC, were used to assess the capacity of peptaibols to be internalized by breast cancer cells, Briefly, 8 × 10^4 MDA-MB-231 and MCF-10A cells/well were grown in 24-well plates for 24 h and then incubated for 24 h with 5 μM peptaibols. […] Those washings both before cell detachment from plates and after cell recovery and centrifugation removed any peptides not strongly associated with cell plasma membranes, assuring FITC signals measured by flow cytometry were referred exclusively to internalized peptides. Cells were centrifuged and resuspended in Versene before measuring FITC fluorescence using a BD Fortessa^TM X-20 flow cytometer (Becton Dickinson, San Jose, CA, USA). […]

[2] = MCF-10A cells, 1 h at 37 °C, CD at 25 °C
Method: The CD profile of Api8-NH2 and Leu4-NH2 was also acquired in the presence of cells (cell line MCF-10A) (Figure 1). This study also provided information on the stability of the peptides in the biological environment [63].
Figure 1 CD profiles of Leu4-NH2 and Api8-NH2 acquired at 25 °C in the presence of MCF-10A epithelial breast cells. (Peptide concentrations: Api8, 5 × 10^−5 M; Leu4, 1 × 10^−5 M).
The CD spectra were obtained on a Jasco (Tokyo, Japan) J-1500 spectropolarimeter. Fused quartz cells (Hellma, Mühlheim, Germany) of 1 mm path length were used. The values are expressed in terms of [θ]T, total molar ellipticity (deg∙cm^2∙dmol^−1). […] The CD measurements in cells were performed as follows: 1 × 10^6 cells were harvested, washed twice in PBS and incubated in the same buffer with peptides (concentrations: Api8, 5 × 10^−5 M; Leu4, 1 × 10^−5 M) for 1 h at 37°C in a rotating mixer before recording the CD spectra.

Row | Compound | pIC50 (MCF-10A cells) | effect on viability of MCF-10A cells (MCF-10A cells) | pIC50 (MDA-MB-231 cells) | killing activity in cancer cells (MDA-MB-231 cells; 24 h, MTS) | internalization in MDA-MB-231 with respect to MCF-10A cells [1] | stability in the presence of cells (CD) [2] | effect on viability of MDA-MB-231 cells (MDA-MB-231 cells; peptide concentration range tested, 24 h, MTS)
1 | CCCCCCCC(=O)NC(C)(C)C(=O)NCC(=O)N[C@@H](CC(C)C)C(=O)N[C@@H](CC(C)C)C(=O)NCC(=O)NCC(=O)N[C@@H](CC(C)C)C(=O)NC(C)(C)C(=O)NCC(=O)N[C@H](C(=O)N[C@H](CO)CC(C)C)[C@@H](C)CC [Leu4-Lol, reference compound] (HELM PEPTIDE1{[CCCCCCCC(=O)[*:2]].[Aib].G.L.L.G.G.L.[Aib].G.I.[CC(C)C[C@@H](CO)N[*:1]]}$$$$V2.0) | < 4.70 | did not significantly affect the viability | < 4.70 |  |  |  | 
2 | CCCCCCCC(=O)NC(C)(C)C(=O)N[C@@H](CCCCN)C(=O)N[C@@H](CC(C)C)C(=O)NC(C)(C)C(=O)N[C@@H](CCCCN)C(=O)N[C@@H](CCCCN)C(=O)N[C@@H](CC(C)C)C(=O)NC(C)(C)C(=O)N[C@@H](CCCCN)C(=O)N[C@H](C(=O)N[C@H](CO)CC(C)C)[C@@H](C)CC [K2569-Lol, Oct-Aib^1-Lys-Leu-Aib^4-Lys-Lys-Leu-Aib^8-Lys-Ile-Lol^11] (HELM PEPTIDE1{[CCCCCCCC(=O)[*:2]].[Aib].K.L.[Aib].K.K.L.[Aib].K.I.[CC(C)C[C@@H](CO)N[*:1]]}$$$$V2.0) | 4.85 |  | 4.92 | ~30% |  |  | 
3 | Oct-Aib^1-Gly-Leu-Leu^4-Gly-Gly-Leu-Aib^8-Gly-Ile-Leu^11-NH-(CH2)2-NH-FITC [Leu4-FITC] |  |  |  |  | about 5 folds |  | 
4 | CCCCCCCC(=O)NC(C)(C)C(=O)N[C@@H](CCCCN)C(=O)N[C@@H](CC(C)C)C(=O)NC(C)(C)C(=O)N[C@@H](CCCCN)C(=O)NCC(=O)N[C@@H](CC(C)C)C(=O)NC(C)(C)C(=O)NCC(=O)N[C@H](C(=O)N[C@H](CO)CC(C)C)[C@@H](C)CC [K25-Lol, Oct-Aib^1-Lys-Leu-Aib^4-Lys-Gly-Leu-Aib^8-Gly-Ile-Lol^11] (HELM PEPTIDE1{[CCCCCCCC(=O)[*:2]].[Aib].K.L.[Aib].K.G.L.[Aib].G.I.[CC(C)C[C@@H](CO)N[*:1]]}$$$$V2.0) | 4.80 |  | 5.05 | ~60% |  |  | 
5 | CCCCCCCC(=O)NC(C)(C)C(=O)N[C@@H](CCCCN)C(=O)N[C@@H](CC(C)C)C(=O)NC(C)(C)C(=O)N[C@@H](CCCCN)C(=O)NCC(=O)N[C@@H](CC(C)C)C(=O)NC(C)(C)C(=O)N[C@@H](CCCCN)C(=O)N[C@H](C(=O)N[C@@H](CC(C)C)C(N)=O)[C@@H](C)CC [K259-NH2, Oct-Aib^1-Lys-Leu-Aib^4-Lys-Gly-Leu-Aib^8-Lys-Ile-Leu^11-NH2] (HELM PEPTIDE1{[CCCCCCCC(=O)[*:2]].[Aib].K.L.[Aib].K.G.L.[Aib].K.I.L.[am]}$$$$V2.0) | 4.77 |  | ~4.89 and 4.89 |  |  |  | 
6 | Oct-Aib^1-Gly-Leu-Aib^4-Gly-Gly-Leu-Api^8-Gly-Ile-Leu^11-NH-(CH2)2-NH-FITC [Api8-FITC] |  |  |  |  | ~3 folds |  | 
7 | CCCCCCCC(=O)NC(C)(C)C(=O)N[C@@H](CCCCN)C(=O)N[C@@H](CC(C)C)C(=O)NC(C)(C)C(=O)N[C@@H](CCCCN)C(=O)NCC(=O)N[C@@H](CC(C)C)C(=O)NC(C)(C)C(=O)N[C@@H](CCCCN)C(=O)N[C@H](C(=O)N[C@H](CO)CC(C)C)[C@@H](C)CC [K259-Lol, Oct-Aib^1-Lys-Leu-Aib^4-Lys-Gly-Leu-Aib^8-Lys-Ile-Lol^11] (HELM PEPTIDE1{[CCCCCCCC(=O)[*:2]].[Aib].K.L.[Aib].K.G.L.[Aib].K.I.[CC(C)C[C@@H](CO)N[*:1]]}$$$$V2.0) | 4.82 |  | 5.00 | ~60% |  |  | 
8 | CCCCCCCC(=O)NC(C)(C)C(=O)NCC(=O)N[C@@H](CC(C)C)C(=O)N[C@@H](CC(C)C)C(=O)NCC(=O)NCC(=O)N[C@@H](CC(C)C)C(=O)NC(C)(C)C(=O)NCC(=O)N[C@H](C(=O)N[C@@H](CC(C)C)C(N)=O)[C@@H](C)CC [Leu4-NH2, Oct-Aib^1-Gly-Leu-Leu^4-Gly-Gly-Leu-Aib^8-Gly-Ile-Leu^11-NH2] (HELM PEPTIDE1{[CCCCCCCC(=O)[*:2]].[Aib].G.L.L.G.G.L.[Aib].G.I.L.[am]}$$$$V2.0) | < 4.70 | did not significantly affect the viability | < 4.70 |  |  | stability of the peptides in the presence of cells | 
9 | CCCCCCCC(=O)NC(C)(C)C(=O)N[C@@H](CCCCN)C(=O)N[C@@H](CC(C)C)C(=O)NC(C)(C)C(=O)NCC(=O)NCC(=O)N[C@@H](CC(C)C)C(=O)NC(C)(C)C(=O)NCC(=O)N[C@H](C(=O)N[C@@H](CC(C)C)C(N)=O)[C@@H](C)CC [K2-NH2, Oct-Aib^1-Lys-Leu-Aib^4-Gly-Gly-Leu-Aib^8-Gly-Ile-Leu^11-NH2] (HELM PEPTIDE1{[CCCCCCCC(=O)[*:2]].[Aib].K.L.[Aib].G.G.L.[Aib].G.I.L.[am]}$$$$V2.0) | 4.77 |  | 5.05 | about 90% |  |  | 
10 | CCCCCCCC(=O)NC(C)(C)C(=O)NCC(=O)N[C@@H](CC(C)C)C(=O)NC(C)(C)C(=O)NCC(=O)NCC(=O)N[C@@H](CC(C)C)C(=O)NC1(C(=O)NCC(=O)N[C@H](C(=O)N[C@@H](CC(C)C)C(N)=O)[C@@H](C)CC)CCNCC1 [Api8-NH2, Oct-Aib^1-Gly-Leu-Aib^4-Gly-Gly-Leu-Api^8-Gly-Ile-Leu^11-NH2] (HELM PEPTIDE1{[CCCCCCCC(=O)[*:2]].[Aib].G.L.[Aib].G.G.L.[O=C(C1(N[*:1])CCNCC1)[*:2]].G.I.L.[am]}$$$$V2.0) | < 4.70 | did not significantly affect the viability | < 4.70 |  |  | stability of the peptides in the presence of cells | did not significantly affect the viability
11 | CCCCCCCC(=O)NC(C)(C)C(=O)NCC(=O)N[C@@H](CC(C)C)C(=O)NC(C)(C)C(=O)N[C@@H](CCCCN)C(=O)N[C@@H](CCCCN)C(=O)N[C@@H](CC(C)C)C(=O)NC(C)(C)C(=O)NCC(=O)N[C@H](C(=O)N[C@H](CO)CC(C)C)[C@@H](C)CC [K56-Lol, Oct-Aib^1-Gly-Leu-Aib^4-Lys-Lys-Leu-Aib^8-Gly-Ile-Lol^11] | 4.74 |  | 4.92 | ~20% |  |  | 
